According to patent US20210177982A1, “MUCUS-PENETRATING PEPTIDES, DELIVERY VEHICLES AND METHODS OF THERAPY” (DNALite Therapeutics, Inc., priority 2018, published 2021):
Ends that are not written are not given here.

Columns and labels:
[1] = pH 7 (No salt); cited from earlier work
[2] = 25° C., RP-HPLC, Ac-X-G-A-K-G-A-G-V-G L-amide; cited from earlier work
[3] = test system: mucin from porcine stomach; experiment: Peptide mucin interaction assay (dynamic light scattering); type: binding; conditions: peptide conjugated to DSPE-PEG2k-DBCO at 0.08% mol on MVL5/DOPC/Chol base system with DNA; 0.5 mg/mL mucin, sample:mucin 5:2
Method: DSPE-PEG2k-DBCO (Avanti Polar Lipids) was hydrated in water and agitated to form a transparent solution. Synthesized peptides with a lysine containing an azide on the N-terminus were conjugated to it. 2.5× moles of the azide peptides were added to the lipid mix and were left to react overnight. 10× moles of sodium azide were added to the reaction to quench it.
Thin film hydration was used to make a lipid base system composed of MVL5/DOPC/Chol (30/60/10% mol). Briefly, the lipids were dissolved in chloroform: methanol (9:1) and mixed. The lipids were then dried using a rotovap and hydrated in a HEPES-glucose buffer (10 mM HEPES, 230 mM Glucose, pH 7.4) for a final concentration of 1 mM. The lipid suspension was extruded through a 200 nm pore size filter for 20 passes using the NanoSizer MINI (T&T Scientific Corporation, Tennessee). An appropriate amount of DNA was added to the lipid base system for a charge ratio of +3 (assuming MVL5 has a charge ratio of +3 at neutral pH) and the solution was mixed thoroughly and let rest for 20 min. DSPE-PEG2k-DBCO conjugated peptides were added to the base system for a final lipid concentration of 0.08% mol. DSPE-SS-PEG2k was added to the base system for a final lipid concentration of 5% mol. The solutions were incubated for 1 h at 60° C.
For each sample, purified 0.5 mg/mL mucin from porcine stomach (Sigma Aldrich) was added to the sample at a sample:mucin volume ratio of 5:2. Dynamic light scattering was used to measure changes in light scattering in the presence of and without mucin for each sample. […] Thus SEQ ID NO. […] Thus SEQ ID NO. […] Thus SEQ ID NO. […] 4 conjugated systems, where peak shifting was not observed in the presence of mucin. Thus SEQ ID NO. […] 5 conjugated systems where peak shifting was not observed in the presence of mucin. Thus SEQ ID NO. […] 6 conjugated systems where peak shifting was not observed in the presence of mucin. Thus SEQ ID NO. […] FIG. 11 show SEQ ID NO. 7 conjugated systems where peak shifting was not observed in the presence of mucin. Thus SEQ ID NO. […] Thus SEQ ID NO. […] Thus SEQ ID NO. […] Thus, SEQ ID NO. […] Thus SEQ ID NO. […] FIG. 16 show SEQ ID NO. […] Thus SEQ ID NO.

Compound	Fauchere Score [1]	ΔtR(Gly), pH 2, 20 mM H3PO4 [2]	ΔtR(Gly), pH 2, 20 mM TFA [2]	ΔtR(Gly), pH 5, 10 mM PO4 Buffer [2]	ΔtR(Gly), pH 7, 10 mM PO4 Buffer +50 mM NaCl [2]	ΔtR(Gly), pH 7, 10 mM PO4 Buffer +50 mM NaClO4 [2]	ΔtR(Gly), pH 7, 10 mM PO4 Buffer, No Salt [2]	interaction with mucin (shift in DLS light intensity peak) [3]
N[C@@H](Cc1ccc(O)cc1)C(=O)O [Tyr]	0.960	15.4	14.7	15.2	16.0	15.1	15.4	
NC(=O)C[C@H](N)C(=O)O [Asn]	−0.600	0.0	−0.6	0.0	1.0	30.8	0.5	
NC(=O)CC[C@H](N)C(=O)O [Gln]	−0.220	0.5	0.6	0.6	1.6	0.0	0.5	
CSCC[C@H](N)C(=O)O [Met]	1.230	16.1	15.7	16.4	17.3	16.8	16.3	
C[C@H](N)C(=O)O [Ala]	0.3	3.6	2.8	3.3	4.1	3.4	3.9	
N[C@@H](CC(=O)O)C(=O)O [Asp]	−0.770	2.2	1.6	−1.0	−0.8	−7.6	−0.9	
NCC(=O)O [Gly, Glycine]	0	0.0	0.0	0.0	0.0	0.0	0.0	
NSGTMQSASRAT [SEQ ID NO. 5]								found not to interact with mucin
YPYDANHTRSPT (not fully specified (N-terminus)) [SEQ ID NO. 10]								found to be interacting with mucin
N[C@@H](Cc1c[nH]c2ccccc12)C(=O)O [Trp]	2.250	32.3	32.4	33.2	33.0	33.7	32.9	
N[C@@H](Cc1ccccc1)C(=O)O [Phe]	1.79	29.1	29.1	30.1	30.1	30.8	29.9	
CCC[C@H](N)C(=O)O [n-Val, norvaline]		15.4	15.2	15.9	16.9	16.8	16.3	
RQSAGVLGFAPTNIDDTSFHA [SEQ ID NO. 16]								found to be mucin interacting
N[C@@H](CS)C(=O)O [Cys]		8.1	7.6	7.9	9.1	8.2	8.3	
MSVTGGKMAP [SEQ ID NO. 3]								found to be interacting with mucin
HPGSPFPPEHRP [SEQ ID NO. 12]								found to be interacting with mucin
DPVDTPNPTRRKPGK [SEQ ID NO. 24]								found to be mucin interacting
MAKPAQGAKY [SEQ ID NO. 2]								found to interact with mucin
NYTTYKSHFQDR [SEQ ID NO. 9]								found to interact with mucin
NCCCC[C@H](N)C(=O)O [Lys]	−0.990	−7.0	2.8	−3.7	−2.0	3.4	−1.1	
LSTAADMQGVVTDGMASGLDKDYLKPDD [SEQ ID NO. 22]								found to not interact with mucin

Compound	Fauchere Score [1]	ΔtR(Gly), pH 2, 20 mM H3PO4 [2]	ΔtR(Gly), pH 2, 20 mM TFA [2]	ΔtR(Gly), pH 5, 10 mM PO4 Buffer [2]	ΔtR(Gly), pH 7, 10 mM PO4 Buffer +50 mM NaCl [2]	ΔtR(Gly), pH 7, 10 mM PO4 Buffer +50 mM NaClO4 [2]	ΔtR(Gly), pH 7, 10 mM PO4 Buffer, No Salt [2]	interaction with mucin (shift in DLS light intensity peak) [3]
STSTVSTPVPPPVDDTTWLQSAS [SEQ ID NO. 15]								found to be mucus interacting
CC(C)[C@H](N)C(=O)O [Val]	1.220	13.8	13.4	14.0	15.0	14.6	14.4	
CC[C@H](C)[C@H](N)C(=O)O [Ile]	1.8	21.3	21.4	22.2	22.8	23.0	22.4	
NIENSTLATPLS [SEQ ID NO. 32]								found to be mucin interacting
DATDRFHGPDAL [SEQ ID NO. 26]								found to be mucin interacting
CCCC[C@H](N)C(=O)O [n-Leu, norleucine]		24.6	24.6	25.6	25.9	26.6	25.6	
TSHTDAPPARSP [SEQ ID NO. 13]								found to be interacting with mucin
LIIYRDLISH [SEQ ID NO. 36, reference compound]								disappearance of the system peak was observed demonstrating mucin interaction
VGDDSGGFSTTVSTEQNVPDPQV [SEQ ID NO. 20]								not found to be mucin interacting
TSHTDAPPARSP [SEQ ID NO. 34]								found to be mucin interacting
MATKGGTVKA [SEQ ID NO. 1]								found not to interact with mucin
TPKTMTQTYDFS [SEQ ID NO. 4]								found not to interact with mucin
RQSAGVL [SEQ ID NO. 14]								lack of interaction with mucin
EPDNWSLDFPRR [SEQ ID NO. 8]								found to interact with mucin
KTIEAHPPYYAS [SEQ ID NO. 7]								found not to interact with mucin
ADDLENVNEGMRIH [SEQ ID NO. 21]								found to not be mucin interacting
PSSSSSSRIGDP [SEQ ID NO. 23]								found to be mucin interacting
QAASRVENYMHR [SEQ ID NO. 6]								found not to interact with mucin
N[C@@H](CO)C(=O)O [Ser]		0.0	0.0	0.0	1.2	30.5	0.5	
RWQVGDRADGE [SEQ ID NO. 19]								found to be mucin interacting
RQWVGDRA [SEQ ID NO. 17]								found to be mucin interacting
